Measurements published in patent publication US7863265B2, “2-azetidinone derivatives and their use as cholesterol absorption inhibitors for the treatment of hyperlipidaemia” (AstraZeneca AB, priority 2005, dated 2011).

Legend:
[1] = tested on: 14C-cholesterol absorption; assay: In vivo testing of cholesterol absorption inhibitors (A); conditions: 0.2 μmol/kg by gavage, procedure A, C57BL/6 female mice
Description: In Vivo Testing of Cholesterol Absorption Inhibitors (A)
C57BL/6 female mice were maintained on regular chow diet and housed in individual cages to collect faeces. Mice were fasted for 3 hours and then gavaged with vehicle or compound. Half an hour later the mice were gavaged with radiolabelled cholesterol. Six hours after the ^14C-cholesterol gavage blood samples were taken via the tail and plasma prepared to determine how much cholesterol were absorbed. 24 hours after the gavage of ^14C-cholesterol the mice were bled and plasma were prepared for analysis. Faeces were collected for 24 hours to assess absorption efficiency.

[2] = Absorption in a Caco-2 cells model; assay type: in vitro ADME; conditions: human
Description: (§1) Absorption of the compounds of formula (I) was tested in a Caco-2 cells model (Gastroenterology 1989, 96, 736): […]

Caco-2 cells = assay: Absorption in a Caco-2 cells model; assay type: in vitro ADME
Description: as §1

| SMILES | inhibition of 14C-cholesterol absorption [1] | Papp [2] | Caco value (Caco-2 cells) |
| --- | --- | --- | --- |
| O=C(COc1ccc([C@@H]2[C@@H](SCC(O)c3ccc(F)cc3)C(=O)N2c2ccc(F)cc2)cc1)NCC(=O)N[C@H](CC1CCCCC1)C(=O)O (single isomer, unassigned) [Example 4, N-{[4-((2R,3R)-1-(4-fluorophenyl)-3-{[(2R or S)-2-(4-fluorophenyl)-2-hydroxyethyl]thio}-4-oxoazetidin-2-yl)phenoxy]acetyl}glycyl-3-cyclohexyl-D-alanine] | 75% | 0.04 ×10⁻⁶ cm/s |  |
| CC(C)(c1ccccc1)[C@@H](NC(=O)CNC(=O)COc1ccc([C@@H]2[C@@H](SCC(O)c3ccc(F)cc3)C(=O)N2c2ccc(F)cc2)cc1)C(=O)O (single isomer, unassigned) [Example 5, N-{[4-((2R,3R)-1-(4-fluorophenyl)-3-{[(2R or S)-2-(4-fluorophenyl)-2-hydroxyethyl]thio}-4-oxoazetidin-2-yl)phenoxy]acetyl}glycyl-β,β-dimethyl-D-phenylalanine] | 78% |  |  |
| CC(C)(C)[C@@H](NC(=O)CNC(=O)COc1ccc([C@@H]2[C@@H](SC[C@H](O)c3ccc(F)cc3)C(=O)N2c2ccc(F)cc2)cc1)C(=O)O [Example 3, N-{[4-((2R,3R)-1-(4-fluorophenyl)-3-{[(2R or 6)-2-(4-fluorophenyl)-2-hydroxyethyl]thio}-4-oxoazetidin-2-yl)phenoxy]acetyl}glycyl-3-methyl-D-valine] | 73% |  | 0.02 ×10⁻⁶ cm/s |
